Species on record: Rattus norvegicus
Assay: Open TG-GATES - Regimen: Daily Repeat
Type: toxicity, organism-based, Sprague-Dawley
Set-up: regimen Daily Repeat, gender Male, age 6 weeks
Conditions: in vivo, po, 1 mg/kg, route gavage, dose level Low; for APTT / Bas / Eos / Fbg / Ht / Lym / MCHC / MCV / Mono / Neu / PT / Plat / RBC / Ret / WBC / Hb / MCH: tissue Blood; for KIDNEY_L / KIDNEY_R / KIDNEY_TOTAL: tissue Kidney; for LIVER: tissue Liver
[1] = 72 h, tissue Plasma, time 3 day
[2] = […], tissue Plasma, time 14 day
[3] = […], tissue Plasma, time 28 day

C#C[C@]1(O)CC[C@H]2[C@@H]3CCc4cc(O)ccc4[C@H]3CC[C@@]21C [ETHINYL ESTRADIOL]
TERMINAL_BW (72 h, time 3 day): 204.6 g | APTT (72 h, time 3 day): 17 s | Bas (72 h, time 3 day): 0% | Eos (72 h, time 3 day): 1% | Fbg (72 h, time 3 day): 309.6 mg/dL | Ht (72 h, time 3 day): 39.1% | Lym (72 h, time 3 day): 82.4% | MCHC (72 h, time 3 day): 34.2% | MCV (72 h, time 3 day): 62.3 fL | Mono (72 h, time 3 day): 3.6% | Neu (72 h, time 3 day): 12.6% | PT (72 h, time 3 day): 13.1 s | Plat (72 h, time 3 day): 107.6 x10_4/uL | RBC (72 h, time 3 day): 627.4 x10_4/ul | Ret (72 h, time 3 day): 5.1% | WBC (72 h, time 3 day): 72 x10_2/uL | KIDNEY_L (72 h, time 3 day): 1 g | KIDNEY_R (72 h, time 3 day): 1 g | KIDNEY_TOTAL (72 h, time 3 day): 2 g | LIVER (72 h, time 3 day): 11.7 g | ALP [1]: 2115.4 IU/L | ALT [1]: 41.2 IU/L | AST [1]: 84.2 IU/L | BUN [1]: 9.4 mg/dL | CRE [1]: 0.2 mg/dL | Ca [1]: 10.6 mg/dL | Cl [1]: 107.4 meq/L | DBIL [1]: 0.038 mg/dL | IP [1]: 7.4 mg/dL | K [1]: 4 meq/L | LDH [1]: 95.4 IU/L | Na [1]: 144 meq/L | PL [1]: 82.6 mg/dL | RALB [1]: 2.6 g/dL | TBIL [1]: 0.07 mg/dL | TC [1]: 29.4 mg/dL | TG [1]: 73.6 mg/dL | TP [1]: 5.6 g/dL | gamma-GTP [1]: 1.2 IU/L | TERMINAL_BW ([…], time 14 day): 243.2 g | TERMINAL_BW ([…], time 28 day): 264.8 g | APTT ([…], time 14 day): 23 s | Bas ([…], time 14 day): 0% | Eos ([…], time 14 day): 1% | Fbg ([…], time 14 day): 328.6 mg/dL | Hb ([…], time 14 day): 13.9 g/dL | Ht ([…], time 14 day): 38.9% | Lym ([…], time 14 day): 77.6% | MCH ([…], time 14 day): 20.1 pg | MCHC ([…], time 14 day): 35.6% | MCV ([…], time 14 day): 56.3 fL | PT ([…], time 14 day): 13.5 s | Plat ([…], time 14 day): 120.8 x10_4/uL | RBC ([…], time 14 day): 690.2 x10_4/ul | Ret ([…], time 14 day): 1.8% | WBC ([…], time 14 day): 80.9 x10_2/uL | APTT ([…], time 28 day): 27.7 s | Bas ([…], time 28 day): 0% | Eos ([…], time 28 day): 1% | Fbg ([…], time 28 day): 328.6 mg/dL | Hb ([…], time 28 day): 14.3 g/dL | Ht ([…], time 28 day): 39% | Lym ([…], time 28 day): 77.6% | MCH ([…], time 28 day): 19.9 pg | MCHC ([…], time 28 day): 36.7% | MCV ([…], time 28 day): 54.2 fL | Mono ([…], time 28 day): 2.6% | Neu ([…], time 28 day): 18.8% | PT ([…], time 28 day): 13.6 s | Plat ([…], time 28 day): 113.5 x10_4/uL | RBC ([…], time 28 day): 720.8 x10_4/ul | Ret ([…], time 28 day): 2.4% | WBC ([…], time 28 day): 82.1 x10_2/uL | KIDNEY_L ([…], time 14 day): 1 g | KIDNEY_R ([…], time 14 day): 1 g | KIDNEY_TOTAL ([…], time 14 day): 2 g | KIDNEY_L ([…], time 28 day): 1 g | KIDNEY_R ([…], time 28 day): 1 g | KIDNEY_TOTAL ([…], time 28 day): 2 g | LIVER ([…], time 14 day): 13.6 g | LIVER ([…], time 28 day): 14.4 g | ALP [2]: 1995.4 IU/L | ALT [2]: 41 IU/L | AST [2]: 53.8 IU/L | BUN [2]: 13.2 mg/dL | CRE [2]: 0.2 mg/dL | Cl [2]: 105.8 meq/L | DBIL [2]: 0.03 mg/dL | IP [2]: 5.7 mg/dL | K [2]: 3.9 meq/L | LDH [2]: 60.8 IU/L | Na [2]: 143.8 meq/L | PL [2]: 105.4 mg/dL | RALB [2]: 2.9 g/dL | TBIL [2]: 0.084 mg/dL | TC [2]: 33.4 mg/dL | TG [2]: 68 mg/dL | TP [2]: 6.5 g/dL | ALP [3]: 1546.2 IU/L | ALT [3]: 37.8 IU/L | AST [3]: 50.6 IU/L | BUN [3]: 14 mg/dL | CRE [3]: 0.3 mg/dL | Ca [3]: 10.8 mg/dL | Cl [3]: 105.4 meq/L | DBIL [3]: 0.036 mg/dL | IP [3]: 5.3 mg/dL | K [3]: 3.6 meq/L | LDH [3]: 38 IU/L | Na [3]: 144 meq/L | PL [3]: 147 mg/dL | RALB [3]: 3 g/dL

From ChEMBL document CHEMBL3885861, “Open TG-GATES”
